Columns and labels:
[1] = tested on: TNFα production in RAW 264.7 macrophage cell line; assay: Mouse TNF alpha quantification assay (LPS-stimulated macrophages, ELISA); assay type: cell-based; details: RAW264.7, RAW 264.7 murine leukemia virus transformed macrophage cell lines, LPS stimulation, read-out: TNF-α % Inhibition at 30 μM
[2] = tested on: IL6 production in RAW 264.7 macrophage cell line; assay: Mouse IL6 quantification assay (LPS-stimulated macrophages, ELISA); assay type: cell-based; details: RAW264.7, RAW 264.7 murine leukemia virus transformed macrophage cell lines, LPS stimulation, read-out: IL-6 % Inhibition at 30 μM

SMILES	inhibition at 30 µM [1]	inhibition at 30 µM [2]
O=C(c1csc2c(O)nc(-c3ccccn3)nc12)N1CCOC(c2nccs2)C1 (stereo not drawn) [drawing 2171]	1 to 25%	51 to 75%
COc1cnc(CNC(=O)c2csc3c(O)nc(-c4ccccn4)nc23)[nH]c1=O [drawing 2347]	0%	1 to 25%
COc1ccc(CCC(=O)N2CCCc3c(O)nc(-c4ccccn4)nc32)cc1 [drawing 2073]	26 to 50%	76 to 100%
OCCOCCNc1nc(-c2ccccn2)nc2scc(-c3ccccc3)c12 [drawing 2044]	1 to 25%	1 to 25%
Oc1nc(-c2ccccn2)nc2c(-c3ccccc3Cl)csc12 [drawing 2121]	76 to 100%	76 to 100%
O=S1(=O)CCN(Cc2cccc(-c3csc4c(O)nc(-c5ccccn5)nc34)c2)CC1 [drawing 2256]	1 to 25%	76 to 100%
Cn1ccnc1-c1nc(O)c2scc(-c3cccc(C(F)(F)F)c3)c2n1 [drawing 2425]	51 to 75%	76 to 100%
OC1CCCN(c2nc(-c3ccccn3)nc3scc(-c4ccccc4)c23)C1 (stereo not drawn) [drawing 2154]	1 to 25%	26 to 50%
Oc1nc(-c2ccccn2)nc2c(-c3cncc(C(F)F)c3)csc12 [drawing 2329]	0%	26 to 50%
Oc1nc(-c2ccccn2)nc2c(CC3CCNC3)csc12 (stereo not drawn) [drawing 2353]	1 to 25%	51 to 75%
Cn1nnc2ccc(-c3csc4c(O)nc(-c5ccccn5)nc34)cc21 [drawing 2253]	1 to 25%	76 to 100%
O=c1nc(-c2ccccn2)[nH]c2c1sc1ccccc12 [drawing 2030]	76 to 100%	76 to 100%
Oc1nc(-c2ccccn2)nc2c(-c3ccccc3)c(-c3ccncc3)sc12 [drawing 2375]	0%	1 to 25%
CC1CCN(C(=O)c2csc3c(O)nc(-c4ccccn4)nc23)CC1 [drawing 2101]	0%	26 to 50%
Oc1nc(-c2ccccn2)nc2c(-c3cncc(F)c3)csc12 [drawing 2302]	0%	51 to 75%
O=C(Nc1nnc(-c2ccccn2)[nH]1)c1ccc2ccccc2n1 [drawing 1942]	0%	1 to 25%
Oc1nc(-c2ccccn2)nc2cc(-c3ccncc3)sc12 [drawing 2388]	1 to 25%	26 to 50%
O=c1nc(-c2ccccn2)[nH]c2sc(-c3ccccc3)cc12 [drawing 2028]	76 to 100%	51 to 75%
CC(C)Cc1csc2c(O)nc(-c3ccccn3)nc12 [drawing 2338]	76 to 100%	76 to 100%
O=C(Cc1ccc2c(c1)OCO2)Nc1nnc(-c2ccccn2)[nH]1 [drawing 1996]	1 to 25%	26 to 50%
O=S(=O)(CCc1ccccc1)N1CCCc2c(O)nc(-c3ccccn3)nc21 [drawing 2083]	0%	26 to 50%
N#Cc1ncn(-c2nc(-c3ccccn3)nc3sc(-c4ccccc4)cc23)n1 [drawing 2132]	76 to 100%	76 to 100%

SMILES	inhibition at 30 µM [1]	inhibition at 30 µM [2]
COCCNc1nc(-c2cn(C)cn2)nc2sc(-c3ccncc3)c(-c3ccccc3)c12 [drawing 2357]	1 to 25%	51 to 75%
Oc1nc(-c2ccccn2)nc2c(-c3ccccc3C(F)F)csc12 [drawing 2275]	76 to 100%	76 to 100%
Oc1nc(-c2ccccn2)nc2c(-c3ccnn3-c3ccccn3)csc12 [drawing 2296]	0%	51 to 75%
O=C(COCCOc1ccccc1)Nc1nnc(-c2ccccn2)[nH]1 [drawing 2005]	1 to 25%	0%
CCOC(=O)NC1CCN(C(=O)c2csc3c(O)nc(-c4ccccn4)nc23)CC1 [drawing 2112]	0%	51 to 75%
Cc1c(C(=O)O)sc2c(O)nc(-c3ccccn3)nc12 [drawing 2313]	76 to 100%	76 to 100%
COc1ccc(CCC(=O)Nc2nnc(-c3ccccn3)[nH]2)cc1F [drawing 1929]	26 to 50%	1 to 25%
O=C(CCc1nn[nH]n1)Nc1nc(-c2ccccn2)nc2sccc12 [drawing 2282]	0%	1 to 25%
Cn1ccnc1-c1nc(O)c2scc(-c3ccccc3Cl)c2n1 [drawing 2442]	1 to 25%	51 to 75%
COCCNc1nc(-c2ccccn2)nc2sc(-c3ccccc3)c(-c3ccccn3)c12 [drawing 2447]	0%	0%
CS(=O)(=O)N1CCCc2cc(C(=O)N3CCCc4c(O)nc(-c5ccccn5)nc43)ccc21 [drawing 2077]	1 to 25%	76 to 100%
Cc1cnccc1-c1csc2c(O)nc(-c3ccccn3)nc12 [drawing 2280]	26 to 50%	76 to 100%
O=c1nc(-c2ccccn2)[nH]c2scc(-c3ccccc3Cl)c12 [drawing 2025]	1 to 25%	0%
c1ccc(-c2nc(N3CCOCC3)c3ccsc3n2)nc1 [drawing 2127]	1 to 25%	1 to 25%
O=C(Cn1c(=O)cnc2ccccc21)Nc1nc(-c2ccccn2)cs1 [drawing 2010]	0%	51 to 75%
CC(O)CNc1nc(-c2ccccn2)nc2scc(-c3ccccc3)c12 (stereo not drawn) [drawing 2042]	1 to 25%	26 to 50%
Nc1nc(O)c2scc(C(=O)N3CCC(N4CCOCC4)CC3)c2n1 [drawing 2093]	1 to 25%	0%
CC(C)(C(=O)Nc1nc(-c2ccccn2)nc2sccc12)c1ccc(C#N)cc1 [drawing 2178]	1 to 25%	76 to 100%
COCCNc1nc(-c2nccn2C)nc2sc(-c3cccc(OC)c3)c(-c3ccccc3)c12 [drawing 2413]	76 to 100%	76 to 100%
COCC(C)Nc1nc(-c2ccccn2)nc2sc(-c3ccncc3)c(-c3ccccc3)c12 (stereo not drawn) [drawing 2368]	26 to 50%	0%
Oc1nc(-c2ccccn2)nc(Oc2cccc(C(F)(F)F)c2)c1O [drawing 2385]	1 to 25%	1 to 25%
O=C(c1csc2c(O)nc(-c3ccccn3)nc12)N1CCC(c2ccccc2)CC1	51 to 75%	76 to 100%

SMILES	inhibition at 30 µM [1]	inhibition at 30 µM [2]
NC(=O)C1(CNc2nc(-c3ccccn3)nc3c2CCC3)CCCC1 [drawing 2043]	1 to 25%	26 to 50%
CC(C)c1noc(CCCC(=O)Nc2nnc(-c3ccccn3)[nH]2)n1 [drawing 1951]	1 to 25%	0%
Cc1cc(C(=O)Nc2nc(-c3ccccn3)cs2)no1 [drawing 2009]	0%	76 to 100%
Oc1nc(-c2ccccn2)nc2c(-c3ccc(C4CCC4)cc3)csc12 [drawing 2257]	0%	51 to 75%
O=C(c1csc2c(O)nc(-c3ccccn3)nc12)N1CCN(Cc2ccccc2)CC1 [drawing 2187]	0%	76 to 100%
O=C(NCCc1cnc(O)nc1)c1csc2nc(-c3ccccn3)nc(N3CCS(=O)(=O)CC3)c12 [drawing 2247]	0%	51 to 75%
CCOCCC1CCN(C(=O)c2csc3c(O)nc(-c4ccccn4)nc23)CC1 [drawing 2103]	1 to 25%	76 to 100%
Cn1ccnc1-c1nc(O)c2scc(-c3ccccc3)c2n1 [drawing 2441]	51 to 75%	76 to 100%
Nc1nc(O)c2scc(Br)c2n1 [drawing 2089]	1 to 25%	1 to 25%
COc1ccc(N2CCN(C(=O)c3csc4c(O)nc(-c5ccccn5)nc34)CC2)cc1O [drawing 2213]	0%	26 to 50%
O=C(c1ccccn1)N1CCCc2c(O)nc(-c3ccccn3)nc21 [drawing 2087]	1 to 25%	1 to 25%
O=C(Cc1cccs1)Nc1nnc(-c2ccccn2)[nH]1 [drawing 1953]	1 to 25%	1 to 25%
Oc1nc(-c2ccccn2)nc2c1c(-c1ccccc1)nn2-c1ccccn1 [drawing 2366]	1 to 25%	51 to 75%
COc1cccc(CC(=O)Nc2nnc(-c3ccccn3)[nH]2)c1 [drawing 1933]	1 to 25%	26 to 50%
Cn1ccnc1-c1nc(O)c2sc(-c3ccccc3)c(-c3ccccc3)c2n1 [drawing 2415]	0%	1 to 25%
O=C(c1csc2c(O)nc(-c3ccccn3)nc12)N1CCOC(c2ccccc2)C1 (stereo not drawn) [drawing 2191]	0%	51 to 75%
OCC1(c2ccc(-c3nc(-c4ccccn4)nc(O)c3Oc3ccccc3)cc2)CC1 [drawing 2361]	26 to 50%	0%
O=C(COc1ccccc1)N1CCCc2c(O)nc(-c3ccccn3)nc21 [drawing 2071]	1 to 25%	76 to 100%
O=C(CCn1ccnc1)Nc1nc(-c2ccccn2)nc2sccc12 [drawing 2281]	0%	51 to 75%
COc1nc(-c2cn(C)cn2)nc2sc(-c3ccncc3)c(-c3ccccc3)c12 [drawing 2358]	1 to 25%	51 to 75%
O=C(c1csc2c(O)nc(-c3ccccn3)nc12)N1CCNC(c2ccccc2F)C1 (stereo not drawn) [drawing 2200]	1 to 25%	76 to 100%
N#Cc1ccc(COCC(=O)Nc2nc(-c3ccccn3)nc3sccc23)cc1 [drawing 2211]	1 to 25%	51 to 75%

From patent US10940139B2, “Compounds that interact with the Ras superfamily for the treatment of cancers, inflammatory diseases, rasopathies, and fibrotic disease” (Shy Therapeutics LLC, priority 2017, dated 2021)
